From PubChem BioAssay AID248 (DTP/NCI, 2004)
“And” between values parts separate entries of the source, which are not always exact repeats. Equal values may be shown once. Inconclusive results and toxic doses are left out. Rule as the data show it: active = T/C of 150% or more; inactive = T/C below 125%.

Tested on: L1210 leukemia ip in BDF1 mice, survival T/C
Test: NCI In Vivo Anticancer Drug Screen. Data for tumor model L1210 Leukemia (intraperitoneal) in B6D2F1 (BDF1) mice
Settings: endpoint: mean survival time, higher = longer survival
Procedure, shortened: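 Antitumor effect is assessed in tumor-bearing animals. Survival in the compound arm is compared with a vehicle-dosed control arm and expressed as their quotient.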

[1] = dose: 100.0 mg/kg/injection, schedule: Q01DX009 (ip), vehicle: saline
[2] = dose: 100.0 mg/kg/injection, schedule: Q04DX003 (ip), vehicle: saline
[3] = dose: 200.0 mg/kg/injection, schedule: Q01DX009 (ip), vehicle: saline
[4] = dose: 200.0 mg/kg/injection, schedule: Q04DX003 (ip), vehicle: saline
[5] = dose: 400.0 mg/kg/injection, schedule: Q01DX009 (ip), vehicle: saline
[6] = dose: 400.0 mg/kg/injection, schedule: Q04DX003 (ip), vehicle: saline
[7] = dose: 100.0 mg/kg/injection, schedule: Q01DX009 (ip), vehicle: Klucel (hydroxypropylcellulose) (HPC)
[8] = dose: 200.0 mg/kg/injection, schedule: Q01DX009 (ip), vehicle: Klucel (hydroxypropylcellulose) (HPC)
[9] = dose: 50.0 mg/kg/injection, schedule: Q04DX003 (ip), vehicle: Klucel (hydroxypropylcellulose) (HPC)
[10] = dose: 100.0 mg/kg/injection, schedule: Q04DX003 (ip), vehicle: Klucel (hydroxypropylcellulose) (HPC)
[11] = dose: 200.0 mg/kg/injection, schedule: Q04DX003 (ip), vehicle: Klucel (hydroxypropylcellulose) (HPC)
[12] = dose: 400.0 mg/kg/injection, schedule: Q04DX003 (ip), vehicle: Klucel (hydroxypropylcellulose) (HPC)
[13] = dose: 100.0 mg/kg/injection, schedule: Q01DX001 (ip), vehicle: other
[14] = dose: 400.0 mg/kg/injection, schedule: Q01DX009 (ip), vehicle: Klucel (hydroxypropylcellulose) (HPC)
[15] = dose: 100.0 mg/kg/injection, schedule: Q01DX001 (ip), vehicle: carboxymethylcellulose (CMC)
[16] = dose: 200.0 mg/kg/injection, schedule: Q01DX001 (ip), vehicle: carboxymethylcellulose (CMC)
[17] = dose: 400.0 mg/kg/injection, schedule: Q01DX001 (ip), vehicle: carboxymethylcellulose (CMC)
[18] = dose: 100.0 mg/kg/injection, schedule: Q04DX003 (ip), vehicle: saline with Tween-80
[19] = dose: 200.0 mg/kg/injection, schedule: Q04DX003 (ip), vehicle: saline with Tween-80
[20] = dose: 100.0 mg/kg/injection, schedule: Q04DX002 (ip), vehicle: saline with Tween-80
[21] = dose: 200.0 mg/kg/injection, schedule: Q04DX002 (ip), vehicle: saline with Tween-80
[22] = dose: 400.0 mg/kg/injection, schedule: Q04DX002 (ip), vehicle: saline with Tween-80
[23] = dose: 100.0 mg/kg/injection, schedule: Q01DX009 (ip), vehicle: saline with Tween-80
[24] = dose: 200.0 mg/kg/injection, schedule: Q01DX009 (ip), vehicle: saline with Tween-80
[25] = dose: 50.0 mg/kg/injection, schedule: Q01DX009 (ip), vehicle: saline with Tween-80
[26] = dose: 25.0 mg/kg/injection, schedule: Q01DX009 (ip), vehicle: saline with Tween-80

Measured: T/C

COc1cccc(CN(C)CCC(=O)O)c1
inactive: [1] 97 % of control | [2] 105 % of control | [3] 94 % of control | [4] 109 % of control | [5] 101 % of control | [6] 105 % of control

CCc1ccccc1NC(=O)NCc1ccco1
inactive: [7] 101 % of control | [8] 92 % of control

CS(=O)(=O)OCCN(CCOS(C)(=O)=O)c1ccc(C=Nc2ccc(-c3csc(-c4ccc(Br)cc4)n3)cc2)c(Cl)c1
inactive: [9] 107 % of control | [10] 112 % of control and 115 % of control | [11] 114 % of control and 118 % of control | [12] 123 % of control

CC(=O)OCC(=O)C1(O)CCC2C3CCC4CC(OC(C)=O)CCC4(C)C3CC(=O)C21C (stereo unspecified)
inactive: [13] 106 % of control | dose: 200.0 mg/kg/injection, schedule: Q01DX001 (ip), vehicle: other 101 % of control | dose: 400.0 mg/kg/injection, schedule: Q01DX001 (ip), vehicle: other 102 % of control

S=c1sscc1-c1ccccc1
inactive: [9] 95 % of control | [7] 108 % of control | [10] 111 % of control | [8] 112 % of control | [11] 95 % of control | [14] 110 % of control | [12] 98 % of control

O=S(=O)(O)C(O)C(Cl)(Cl)Cl (stereo unspecified)
inactive: dose: 100.0 mg/kg/injection, schedule: Q01DX001 (ip), vehicle: saline 103 % of control | [1] 98 % of control | [2] 107 % of control | dose: 200.0 mg/kg/injection, schedule: Q01DX001 (ip), vehicle: saline 101 % of control | [3] 101 % of control | [4] 96 % of control | dose: 400.0 mg/kg/injection, schedule: Q01DX001 (ip), vehicle: saline 98 % of control | [5] 98 % of control | [6] 95 % of control

COC(=O)C1(O)c2ccccc2-c2ccccc21
inactive: [15] 103 % of control | [16] 111 % of control | [17] 97 % of control

O=c1[nH]c(=O)c2ncsc2[nH]1
inactive: [18] 103 % of control | [19] 110 % of control

CCOCCOCCOC(C)Oc1ccc(C(=O)OCC)cc1 (stereo unspecified)
inactive: [20] 103 % of control | [21] 100 % of control | [22] 107 % of control

Cn1cccc1C=O
inactive: [23] 102 % of control | [24] 100 % of control | dose: 400.0 mg/kg/injection, schedule: Q01DX009 (ip), vehicle: saline with Tween-80 97 % of control

O=Cc1cn(C2CC(O)C(CO)O2)c(=O)[nH]c1=O (stereo unspecified)
inactive: dose: 50.0 mg/kg/injection, schedule: Q01DX009 (ip), vehicle: Klucel (hydroxypropylcellulose) (HPC) 117 % of control | dose: 50.0 mg/kg/injection, schedule: Q04DX003 (ip), vehicle: saline with Tween-80 103 % of control | dose: 100.0 mg/kg/injection, schedule: Q01DX005 (ip), vehicle: saline 108 % of control | [18] 99 % of control | dose: 200.0 mg/kg/injection, schedule: Q01DX005 (ip), vehicle: saline 110 % of control | [19] 102 % of control | [14] 114 % of control | dose: 400.0 mg/kg/injection, schedule: Q04DX003 (ip), vehicle: saline with Tween-80 96 % of control

Cc1cccc(/C2=C/CCCCCC2)c1
inactive: dose: 37.5 mg/kg/injection, schedule: Q01DX009 (ip), vehicle: saline 100 % of control | dose: 75.0 mg/kg/injection, schedule: Q01DX001 (ip), vehicle: acetone 89 % of control | dose: 75.0 mg/kg/injection, schedule: Q01DX009 (ip), vehicle: saline 103 % of control | dose: 150.0 mg/kg/injection, schedule: Q01DX001 (ip), vehicle: acetone 88 % of control | dose: 150.0 mg/kg/injection, schedule: Q01DX009 (ip), vehicle: saline 115 % of control | dose: 225.0 mg/kg/injection, schedule: Q01DX009 (ip), vehicle: acetone 92 % of control | dose: 300.0 mg/kg/injection, schedule: Q01DX001 (ip), vehicle: acetone 93 % of control

C(#[C][Sn]([C]#Cc1ccccc1)([C]#Cc1ccccc1)[C]#Cc1ccccc1)c1ccccc1
inactive: [25] 92 % of control | [23] 103 % of control | [24] 95 % of control

C[N+](C)(C)CCOC(=O)c1ccc(CBr)cc1
inactive: [26] 104 % of control | [25] 108 % of control | dose: 50.0 mg/kg/injection, schedule: Q04DX002 (ip), vehicle: saline 90 % of control | [23] 86 % of control | [1] 103 % of control | dose: 100.0 mg/kg/injection, schedule: Q04DX002 (ip), vehicle: saline 98 % of control

CCCCCC(C)(O)CC(C)(C)C (stereo unspecified)
inactive: [15] 92 % of control | [16] 97 % of control | [17] 97 % of control

CC(=O)Nc1ccc2c(c1)C(=O)NC2=O
inactive: dose: 100.0 mg/kg/injection, schedule: Q01DX001 (ip), vehicle: Klucel (hydroxypropylcellulose) (HPC) 93 % of control | dose: 200.0 mg/kg/injection, schedule: Q01DX001 (ip), vehicle: Klucel (hydroxypropylcellulose) (HPC) 90 % of control | dose: 400.0 mg/kg/injection, schedule: Q01DX001 (ip), vehicle: Klucel (hydroxypropylcellulose) (HPC) 90 % of control

CCCCCCCCCCC(OO)C(=O)OC(C)(C)C (stereo unspecified)
inactive: dose: 100.0 mg/kg/injection, schedule: Q04DX002 (ip), vehicle: Klucel (hydroxypropylcellulose) (HPC) 95 % of control | dose: 200.0 mg/kg/injection, schedule: Q04DX002 (ip), vehicle: Klucel (hydroxypropylcellulose) (HPC) 91 % of control | dose: 400.0 mg/kg/injection, schedule: Q04DX002 (ip), vehicle: Klucel (hydroxypropylcellulose) (HPC) 91 % of control

O=C(O)c1ccc2c(c1)C(=O)N(c1ccccc1)C2=O
inactive: [20] 93 % of control | [21] 93 % of control | [22] 97 % of control

[O-][n+]1c(Cl)cc(Cl)c2ccccc21
inactive: [26] 95 % of control | [25] 114 % of control | [23] 97 % of control and 102 % of control

Cn1c(=O)cc(CC#N)c2ccccc21
inactive: [13] 100 % of control

Cc1ccccc1N(C)C
inactive: dose: 50.0 mg/kg/injection, schedule: Q04DX002 (ip), vehicle: saline with Tween-80 106 % of control | [20] 98 % of control | [21] 92 % of control

C=CC[P+](Cc1cccc(C)c1)(c1ccccc1)c1ccccc1
inactive: dose: 6.25 mg/kg/injection, schedule: Q01DX009 (ip), vehicle: saline with Tween-80 107 % of control | dose: 12.5 mg/kg/injection, schedule: Q01DX009 (ip), vehicle: saline with Tween-80 115 % of control

CCOC(=O)C(N=Nc1nn[nH]n1)C(C)=O (stereo unspecified)
inactive: dose: 100.0 mg/kg/injection, schedule: Q04DX003 (ip), vehicle: acetone 109 % of control | dose: 200.0 mg/kg/injection, schedule: Q04DX003 (ip), vehicle: acetone 94 % of control | dose: 400.0 mg/kg/injection, schedule: Q04DX003 (ip), vehicle: acetone 108 % of control

Cc1ccc(C)[nH]1
inactive: dose: 5.0 mg/kg/injection, schedule: Q01DX009 (ip), vehicle: saline with Tween-80 96 % of control | dose: 5.0 mg/kg/injection, schedule: Q04DX003 (ip), vehicle: saline with Tween-80 93 % of control | dose: 10.0 mg/kg/injection, schedule: Q01DX009 (ip), vehicle: saline with Tween-80 94 % of control | dose: 10.0 mg/kg/injection, schedule: Q04DX003 (ip), vehicle: saline with Tween-80 98 % of control | dose: 20.0 mg/kg/injection, schedule: Q01DX009 (ip), vehicle: saline with Tween-80 100 % of control | dose: 20.0 mg/kg/injection, schedule: Q04DX003 (ip), vehicle: saline with Tween-80 93 % of control
